Tests used:
[1] = system: larvae of click beetles of the genus Agriotes, in particular Agriotes sordidus; assay: Maize field trial, St Hilaire: emerged plants counted after bait granules incorporated in the sowing row; assay type: in vivo; conditions: 22 days after sowing, 2 mm maize-meal granules with 0.25% fipronil, untreated 19
Excerpt: (§1) A surface of 0.1 ha is sown with maize at the rate of about 8000 untreated seeds. This surface is divided into 40-m^2 plots. At the same time as the sowing, there are incorporated into the soil, in the sowing row, 2 mm granules containing a composition consisting of: The quantities of granules thus spread vary from 2.5 to 10 kg per hectare. Untreated plots are kept to serve as control and to verify the extent of the damage by the insects. Likewise, the plots will be treated with a commercial insecticide which is reputed effective and called reference. Each modality is repeated four times. Approximately 20 days after sowing, the maize plants which have emerged are counted. The soil is dug out and scraped in order to capture and identify the insects responsible for the damage; a large presence of larvae of click beetles of the genus Agriotes, in particular Agriotes sordidus, is observed for the untreated control.

[2] = system: larvae of click beetles of the genus Agriotes, in particular Agriotes lineatus; assay: Maize field trial, Beaufort: emerged plants counted after bait granules incorporated in the sowing row; assay type: in vivo; conditions: 50 days after sowing, 2 mm maize-meal granules with 0.25% fipronil, untreated 30
Excerpt: as §1, with “1” for “0.1”, “98, 100” for “8000”, “27-m^2” for “40-m^2”, “50” for “20”, “lineatus.” for “sordidus, is observed for the untreated control.”

[3] = dose of fipronil 6 g per hectare
[4] = dose of fipronil 50 g per hectare

In the case of `N#Cc1nn(-c2c(Cl)cc(C(F)(F)F)cc2Cl)c(N)c1[S+]([O-])C(F)(F)F` (stereo not shown) [fipronil, 5-amino-3-cyano-1-[2,6-di-chloro-4-(trifluoromethyl)phenyl]-4-[(trifluoromethyl)-sulphinyl]-1H-pyrazole], the “plants observed per 10 meters of furrow” value [1, 3] was 49 plants per 10 meters of furrow, the “plants observed per 10 meters of furrow” value [1, 4] was 49 plants per 10 meters of furrow and the “plants observed per 10 meters of furrow” value [2, 3] was 40 plants per 10 meters of furrow. The “plants observed per 10 meters of furrow” value [2, 4] was 49.8 plants per 10 meters of furrow.
